Laboratory results taken from patent US9133180B2, “Aurora and FLT3 kinases modulators” (SAREUM LIMITED, priority 2012, dated 2015).

What was measured:
Aurora A kinase = Aurora A kinase (Homo sapiens (Human), UniProt O14965); assay: Aurora A kinase 33P-ATP filter assay (Reaction Biology Corp.); type: biochemical
Protocol: (§1) The ability of the compounds of the invention to inhibit FLT3 kinase and Aurora A and Aurora B kinases was determined using the assays described below.
(§2) Kinase assays were performed at Reaction Biology Corp., Malvern, Pa., USA, using the following general procedure:
(§3) 1) Prepare indicated substrate in freshly prepared Base Reaction Buffer (20 mM Hepes pH 7.5, 10 mM MgCl2, 1 mM EGTA, 0.02% Brij35, 0.02 mg/ml BSA, 0.1 mM Na3VO4, 2 mM DTT, 1% DMSO).
(§4) 2) Deliver cofactors (1.5 mM CaCl2, 16 ug/mL Calmodulin, 2 mM MnCl2) to the substrate solution above.
(§5) 3) Deliver indicated kinase into the substrate solution and gently mix
(§6) 4) Deliver varying concentrations of test compound in DMSO into the kinase reaction mixture.
(§7) 5) Deliver ^33P-ATP (specific activity 0.01 µCi/µL final) into the reaction mixture to initiate the reaction.
(§8) 6) Incubate kinase reaction for 120 min at room temperature.
(§9) 7) Reactions are spotted onto P81 ion exchange filter paper (Whatman #3698-915)
(§10) 8) Unbound phosphate is removed by washing filters extensively in 0.75% phosphoric acid.
(§11) 9) ^33P signal was determined using Typhoon phosphorimagers (GE Healthcare).
(§12) Substrates: Kemptide=[H-LRRASLG] Abltide=[[…]]

FLT3 kinase = FLT3 kinase (Homo sapiens (Human), UniProt P36888); assay: FLT3 kinase 33P-ATP filter assay (Reaction Biology Corp.); type: biochemical
Chain of FLT3 kinase (P36888 27-993): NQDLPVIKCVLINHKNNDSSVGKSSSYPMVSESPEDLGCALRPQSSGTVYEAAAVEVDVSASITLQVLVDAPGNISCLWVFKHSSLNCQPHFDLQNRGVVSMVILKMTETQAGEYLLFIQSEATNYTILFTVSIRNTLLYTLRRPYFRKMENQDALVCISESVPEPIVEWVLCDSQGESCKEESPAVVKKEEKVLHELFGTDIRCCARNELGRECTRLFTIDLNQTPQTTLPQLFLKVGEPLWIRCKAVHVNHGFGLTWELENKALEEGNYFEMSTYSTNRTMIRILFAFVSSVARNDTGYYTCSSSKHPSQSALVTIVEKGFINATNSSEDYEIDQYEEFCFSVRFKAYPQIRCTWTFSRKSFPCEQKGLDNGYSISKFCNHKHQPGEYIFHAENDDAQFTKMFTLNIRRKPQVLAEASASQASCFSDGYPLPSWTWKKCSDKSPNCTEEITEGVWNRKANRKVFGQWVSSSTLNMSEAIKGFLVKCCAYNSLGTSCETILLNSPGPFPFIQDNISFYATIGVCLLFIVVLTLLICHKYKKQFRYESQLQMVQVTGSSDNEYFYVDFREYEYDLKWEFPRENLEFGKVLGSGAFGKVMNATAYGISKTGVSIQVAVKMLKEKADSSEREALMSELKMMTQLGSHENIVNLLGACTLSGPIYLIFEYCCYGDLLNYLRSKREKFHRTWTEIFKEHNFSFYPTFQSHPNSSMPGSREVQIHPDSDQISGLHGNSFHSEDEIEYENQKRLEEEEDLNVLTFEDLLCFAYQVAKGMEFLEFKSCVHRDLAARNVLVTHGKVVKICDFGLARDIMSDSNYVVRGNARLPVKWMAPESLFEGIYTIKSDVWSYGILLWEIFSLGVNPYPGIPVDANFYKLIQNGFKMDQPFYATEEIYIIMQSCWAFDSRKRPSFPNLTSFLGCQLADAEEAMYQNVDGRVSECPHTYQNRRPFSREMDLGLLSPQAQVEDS
Protocol: as §1, §2, §3, §4, §5, §6, §7, §8, §9, §10, §11, §12

HCT-116 [1] = assay: Anti-proliferative activity, Alamar Blue assay; type: cell-based; conditions: Homo sapiens, 96 h exposure, read-out: HCT116 96 Hrs IC50
Protocol: (§13) The anti-proliferative activities of compounds of the invention are determined by measuring the ability of the compounds to inhibit the growth of the colorectal cancer derived cell-line HCT-116. Inhibition of cell growth is measured using the Alamar Blue assay (Nociari et al., Journal of Immunological Methods (1998) 213, 157-167). The method is based on the ability of viable cells to reduce resazurin to its fluorescent product resorufin. For each proliferation assay cells are plated onto 96 well plates and allowed to recover for 16 hours prior to the addition of inhibitor compounds for a further 96 hours. At the end of the incubation period 10% (v/v) Alamar Blue is added and incubated for a further 6 hours prior to determination of fluorescent product at Excitation 535 nm and Emission 590 nm. All cell lines are obtained from ECACC (European Collection of cell Cultures).
(§14) The activities of the compounds of the invention against the human colorectal cancer cell line HCT-116 are shown the in the table below. The column headed HCT-116 96 Hrs refers to the concentration of compound required to reduce the proliferation of HCT-116 cells by 50% following a 96 h period of exposure. The column headed [Polyploidy] refers to the lowest concentration of compound required to produce a distinct polyploid phenotype, believed to be due to Aurora B inhibition.

HCT-116 [2] = assay: Polyploid phenotype in HCT-116 cells; type: cell-based, human
Protocol: as §13, §14

[3] = Caco-2 permeability assay; type: in vitro ADME; conditions: human; for Papp A→B: A2B, read-out: Caco2 A2B Papp; for Papp B→A: B2A, read-out: Caco2 B2A Papp
Protocol: The ability of a compound to be taken up and retained by a cell can be measured by carrying out permeability studies using Caco-2 cells.
Compounds of the present invention were therefore tested in a standard Caco-2 assay and the rate of flow of the compounds into and out of the cells was determined.
In the table, the column headed “Caco-2 A2B” indicates the rate at which compound flows into the cells and the column Caco-2 B2A indicates the rate at which compound flows out of the cells. The “Efflux Ratio” is the ratio of Caco-2 B2A:Caco-2 A2B.

[4] = Body weight / tolerability in MV4-11-bearing nude mice; type: in vivo, Balb/c nude mouse
Protocol: A total of 52 female nude mice were used. The mice were allowed 3 days of acclimatization period before starting the experiment. Mice were implanted subcutaneously (s.c.) with 200 μl of 1×10^7MV4-11 tumour cells in 50% Matrigel in the right flank at the beginning of the study. When tumours reached an average volume of 100-150 mm^3, 32 mice out of the 52 were selected based on tumour volume, and randomly assigned to 4 groups prior to dosing. Each treatment group consisted of 8 tumour-bearing animals (n=8/group).
A comparison group of mice were treated with cytarabine once daily for 5 days on, 2 days off, for 4 cycles.
Mice were weighed at each dosing and the tumour sizes recorded twice each week. Mice were observed closely for any overt signs of adverse, treatment-related side effects and these were recorded if and when they were observed.
Mice were euthanized by CO2 exposure after 4-cycle dose. The tumour volume, weight of dissected tumours, and the mouse body weight were measured and recorded. The tumour inhibitory rate (IR) was calculated by the formula IR=(WV−WT)/WV×100%.

Aurora B kinase = Aurora B kinase (Homo sapiens (Human), UniProt Q96GD4); assay: Aurora B kinase 33P-ATP filter assay (Reaction Biology Corp.); type: biochemical
Chain of Aurora B kinase (Q96GD4 whole entry): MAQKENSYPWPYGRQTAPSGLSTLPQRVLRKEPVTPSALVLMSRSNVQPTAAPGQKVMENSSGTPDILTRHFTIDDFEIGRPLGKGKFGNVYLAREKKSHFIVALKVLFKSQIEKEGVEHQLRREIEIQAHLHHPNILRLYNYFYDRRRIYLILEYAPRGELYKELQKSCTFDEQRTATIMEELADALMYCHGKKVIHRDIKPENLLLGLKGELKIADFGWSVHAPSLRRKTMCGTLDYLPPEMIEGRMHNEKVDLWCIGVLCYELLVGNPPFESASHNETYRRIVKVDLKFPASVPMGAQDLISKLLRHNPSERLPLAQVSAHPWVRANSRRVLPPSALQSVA
Protocol: as §1, §2, §3, §4, §5, §6, §7, §8, §9, §10, §11, §12

RPMI8226 = assay: CellTiter-Blue assay, haematological cell line; type: cell-based; conditions: Homo sapiens, RPMI-8226, 96 h; RPMI8226 (MM), four days treatment
Protocol: Cells were harvested from exponential phase cultures, counted and plated in 96 well flat-bottom microtiter plates at a cell density of 20,000-90,000 cells/well. After a 24 h recovery period to allow the cells to resume exponential growth, 10 μl of culture medium (four control wells/plate) or of culture medium with test compound were added. The compounds were applied in duplicates at ten concentrations and treatment continued for four days. After treatment of cells, 10 μl/well CellTiter-Blue® reagent was added. Following an incubation period of up to four hours, fluorescence (FU) was measured by using the EnVision Xcite multilabel reader (excitation λ=531 nm, emission λ=615 nm). The compounds were tested in two to four independent experiments for each cell line.

Chain of Aurora A kinase (O14965 whole entry): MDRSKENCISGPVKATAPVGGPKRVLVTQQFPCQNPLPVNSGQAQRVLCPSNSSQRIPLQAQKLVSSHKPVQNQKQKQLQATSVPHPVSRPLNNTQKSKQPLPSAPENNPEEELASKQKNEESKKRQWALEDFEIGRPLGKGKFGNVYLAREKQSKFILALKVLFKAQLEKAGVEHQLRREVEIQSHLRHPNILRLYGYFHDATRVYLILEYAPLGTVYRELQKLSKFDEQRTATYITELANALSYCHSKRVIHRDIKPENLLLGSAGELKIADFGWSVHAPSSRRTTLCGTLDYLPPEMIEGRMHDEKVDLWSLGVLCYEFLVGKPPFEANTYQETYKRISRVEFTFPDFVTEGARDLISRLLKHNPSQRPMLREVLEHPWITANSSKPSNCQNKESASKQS

Q: Which results are given for `Cc1cc(F)c2[nH]ccc2c1-c1nc(C(N)=O)c(-c2ccc(N3CCNC(C)(C)C3)cc2)o1` [Example 7, 2-(5-Methyl-7-Fluoro-1H-Indol-4-yl)-5-[4-(3,3-dimethyl-piperazin-1-yl)-phenyl]-oxazole-4-carboxylic acid amide]?
A: IC50 (Aurora A kinase): 42.5 nM; IC50 (FLT3 kinase): 0.48 nM; IC50 (HCT-116 [1]): 120 nM; [Polyploidy] lowest concentration producing a distinct polyploid phenotype (HCT-116 [2]): 0.1 µM; Papp A→B [3]: 0.683 ×10⁻⁶ cm/s; Papp B→A [3]: 2.26 ×10⁻⁶ cm/s; toxicity in xenograft study ([4]; 30 mg/kg IV BID): without any obvious toxicity

Q: Which IC50 (Aurora A kinase) does the source give for `Cc1ccc2[nH]ccc2c1-c1nc(C(N)=O)c(-c2ccc(N3CCNC(C)(C)C3)cc2)o1` [Example 2, 2-(5-Methyl-1H-Indol-4-yl)-5-[4-(3,3-dimethyl-piperazin-1-yl)-phenyl]-oxazole-4-carboxylic acid amide] here?
A: 13.6 nM

Q: What about the IC50 (Aurora B kinase) of the same compound?
A: 5.9 nM

Q: What about the IC50 (FLT3 kinase) of the same compound?
A: 0.77 nM

Q: And the IC50 (HCT-116 [1])?
A: 74 nM

Q: And the “[Polyploidy] lowest concentration producing a distinct polyploid phenotype” value (HCT-116 [2])?
A: 0.03 µM

Q: And the Papp A→B [3]?
A: 1.98 ×10⁻⁶ cm/s

Q: And the Papp B→A [3]?
A: 9.91 ×10⁻⁶ cm/s

Q: And the efflux ratio ([3]; B2A:A2B, read-out: Caco2 Efflux ratio)?
A: 4.99

Q: And the IC50 (RPMI8226)?
A: 2140 nM

Q: What about the “toxicity in xenograft study” value ([4]; 20 mg/kg IV BID) of the same compound?
A: without any obvious toxicity
